What follows are compounds tested against T1, VHL-Elongin C-Elongin B (VCB) complex (Homo sapiens, UniProt P40337) (assay: Protein-observed NMR (1H-15N TROSY) titration of fragment hits against 15N-labeled VCB). Settings: not given.
T1 construct: gene (residues 54-213) was cloned into pET28a(+) vector; Elongin C (residues 17-112); His-tag (cleaved yes); made in house; host or cells: E. coli BL21(DE3), M9 minimal media with 15NH4Cl
Format: binding
Method: All NMR experiments were carried out at 310K using a 900 MHz Bruker Avance III spectrometer equipped with a TXI/TCI CryoProbe and a Bruker SampleJet. Two-dimensional 1H-15N TROSY spectra of VCB complex were recorded using 30-minute acquisition time and analyzed using Topspin 4.1.4 (Bruker). […]
screened as mixtures of 12 fragments prepared in twelve 96-well plates. Each NMR sample was made of 100µM of 15N-labeled VCB, 800µM of each fragment, and 5% DMSO-d6 for spectrometer locking in 3mm-diameter NMR tubes (Bruker). Hit mixtures were identified by comparing the chemical shifts of the backbone resonances to a ligand-free VCB spectrum and then deconvoluted by screening individual fragments.
TROSY titration experiments were used to determine binding affinity of the fragment hits identified from the screen. […]

T1 sequence (P40337 54-213): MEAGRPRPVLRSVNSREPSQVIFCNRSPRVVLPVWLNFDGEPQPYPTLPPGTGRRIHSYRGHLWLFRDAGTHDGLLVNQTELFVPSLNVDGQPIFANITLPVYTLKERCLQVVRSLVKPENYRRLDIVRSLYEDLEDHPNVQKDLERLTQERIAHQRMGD
T1 sequence (Q15369 17-112, further chain): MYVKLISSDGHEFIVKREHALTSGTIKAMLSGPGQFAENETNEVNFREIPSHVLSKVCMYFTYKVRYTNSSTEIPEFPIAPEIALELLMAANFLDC
T1 sequence (Q15370 1-104 partner limits assumed): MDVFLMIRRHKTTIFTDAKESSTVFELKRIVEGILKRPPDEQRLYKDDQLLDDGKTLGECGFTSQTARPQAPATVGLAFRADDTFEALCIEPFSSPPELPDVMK

Row | Compound | Kd
1 | CC(C)N1CCN(Cc2ccccc2F)CC1 [compound 14] | 3700 µM

Same assay, conditions: TROSY titration, fragment 0.31-10 mM, 310K, Hill's equation model; hits grouped by binding pocket (A unknown, B VHL cryptic, C Elongin C, D HIF1α); read-out: NMR-derived binding affinity (KD)

Row | Compound | Kd
2 | O=C1CCc2cc([N+](=O)[O-])ccc2N1 [compound 1] | 1700 µM
3 | Nc1nc2ccccc2n1Cc1ccccc1 [compound 2] | 490 µM
4 | CC(C)OC(=O)c1ccc(Cl)c(N)c1 [compound 4] | 5600 µM
5 | CC(C)NC(=O)c1cc2ccc3cccnc3c2[nH]1 [compound 5] | 8200 µM
6 | Clc1ccc(CN2CCCCC2)cc1Cl [compound 6] | 450 µM
7 | CC(=O)c1cccc(NC(=O)c2cccs2)c1 [compound 7] | 470 µM
8 | SC1=NC2(CCCC2)N=C1c1ccccc1 [compound 8] | 530 µM
9 | CC(=O)N1CCc2ccc([N+](=O)[O-])cc21 [compound 9] | 660 µM
10 | O=C(Nc1ccc(F)c(Cl)c1)c1cnccn1 [compound 10] | 710 µM
11 | Cc1cc(Nc2cccc(O)c2)c2cccc(C)c2n1 [compound 11] | 1600 µM
12 | CN(C)CCN(C)Cc1ccc(F)cc1 [compound 12] | 1300 µM
13 | Nc1ccc2c(c1)ncn2CCO [compound 15] | 4000 µM
14 | Cc1nc2cc(C(=O)O)ccc2n1C [compound 16] | 6000 µM
15 | O=C(O)c1ccnc2[nH]cnc12 [compound 17] | 7500 µM
